From patent publication US7919300B2, “Glucose isomerase mutants” (priority 2004, dated 2011)
Where two headings read alike, the source gives them in different places.

Target: Thermoanaerobacterium saccharolyticum glucose isomerase (ATCC 49915), wild-type, SEQ ID NO.: 2 (Thermoanaerobacterium saccharolyticum, UniProt P30435)
Conditions: pH 6.5, 20 mM sodium phosphate, 250 μM CoCl2, 5 mM MgCl2, 10 minutes
Experimental: The isolation and purification of wild-type glucose isomerase were based on Lee et al., (Journal of General Microbiology, 139:1227-1234, 1993) with modifications. pGEMT-TS transformed E. coli HB101 cells were incubated on 1% MacConkey agar plate containing 1% xylose and 50 mg/L ampicillin at 37° C. for 36 hours. A single colony from the plate was inoculated and cultivated in 5 mL LB supplemented with 50 mg/L ampicillin for 16 hours. The bacterial cells were pelleted and resuspended in 1 ml 20 mM phosphate buffer (pH 6.5), and CoCl2 and MgCl2 were added to final concentration of 250 μM and 5 mM, respectively. The cells were disrupted by using ultrasonication and centrifuged at 17,800 g for 15 minutes at 10° C. to collect the supernatant as crude glucose isomerase. The crude enzyme was heated at 80° C. for 10 minutes and centrifuged again at 17,800 g for 15 minutes at 10° C. to remove the precipitation.
Ninety μl of the stock solution was mixed with 10 μl of the glucose isomerase prepared as described in Example 9, incubated at 80° C. for 10 minutes and quenched on ice immediately. The fructose formed was measured by the cysteine-carbazole method (Dische et al., J. Biol. Chem, 192:583-587, 1951; and Nakamura, Agr. Biol. Chem. 32:701-706, 1968). The protein concentration was determined using Coomassie® Plus Protein Assay Reagent Kit (Pierce, USA) and SDD-PAGE, with BSA as the standard.

Chain of Thermoanaerobacterium saccharolyticum glucose isomerase (ATCC 49915), wild-type, SEQ ID NO.: 2 (P30435 whole entry R81A): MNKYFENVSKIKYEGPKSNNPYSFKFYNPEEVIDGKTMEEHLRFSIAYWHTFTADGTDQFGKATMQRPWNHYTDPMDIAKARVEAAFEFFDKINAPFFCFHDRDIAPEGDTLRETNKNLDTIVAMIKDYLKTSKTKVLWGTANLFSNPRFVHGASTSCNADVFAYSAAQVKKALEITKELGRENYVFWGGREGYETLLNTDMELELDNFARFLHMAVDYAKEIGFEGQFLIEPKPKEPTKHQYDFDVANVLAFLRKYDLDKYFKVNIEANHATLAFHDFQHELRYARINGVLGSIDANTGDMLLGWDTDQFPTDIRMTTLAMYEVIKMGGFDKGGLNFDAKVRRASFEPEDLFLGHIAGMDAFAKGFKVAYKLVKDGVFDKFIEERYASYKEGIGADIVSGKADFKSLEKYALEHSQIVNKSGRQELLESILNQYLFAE

SMILES: OC[C@H]1OC(O)[C@H](O)[C@@H](O)[C@@H]1O (stereo partly drawn) [D-glucose]
- Kcat (65° C.): 5.742 s⁻¹
- Kcat/Km (65° C.): 41.7 M⁻¹ s⁻¹
- Kcat (80° C.): 14.68 s⁻¹
- Kcat/Km (80° C.): 98.3 M⁻¹ s⁻¹
